Series [1] deals with T1, human histamine 4 receptor (hH4R) (Homo sapiens, UniProt Q9H3N8).
T1 construct: purchased Multispan
Nature of the series: Binding affinity of human histamine 4 receptor (hH4R), [3H] histamine displacement. The settings on record: [3H] labeled histamine, hH4R-overexpressed cell membrane. How it is done:
The compounds prepared in the above Examples, the compound of Example 55 of International Publication No. WO 2010/030785 and the compound of Example 4 of International Publication No. WO 2013/048214 were diluted by 1,000 fold (v/w) with DMSO, and then 1 mL of the diluted compound solution was mixed with 99 mL of the analysis buffer solution (50 mM tris-HCl pH 7.4, 5 mM EDTA) to obtain concentration of 1 μM. […] of the prepared compound solution was transferred to each well of a 96-well plate, and then 20 mL of 100 μM histamine diluted with analysis buffer solution and 1% DMSO were transferred to each well to calculate non-specific binding and total binding degree. 15 μg of human histamine 4 receptor-overexpressed cell membrane (Multispan) was diluted into […] of analysis buffer solution and that was transferred to each well. [^3H] labeled histamine (PerkinElmer) was diluted into 10 nM concentration, 20 mL was allocated in each well, and then it was kept in a 27° C. incubator for 30 minutes. After the reaction, 100 mL of the mixture was transferred to a glass fiber plate in which 0.5% polyethylene amine was pre-soaked, and then non-binding [^3H] labeled histamine was removed in vacuum. After 6 times washing with 200 mL of washing buffer solution (50 mM tris-HCl, pH 7.4), the plate was dried in a 37° C. oven for 18 hours. […] of betaScint cocktail solution was added to each well, and after 10 minutes CPM (count per minute) value of [^3H] labeled histamine was measured by the use of Micro beta2™. The binding affinity (% inhibition) of the human histamine 4 receptor for the compounds of the present invention was analyzed by an Excel program, and the results of analysis are represented in Table 1.

Series [2] is described as follows: Test for pharmacokinetics in ICR mice (oral). The class given is in vivo. The settings on record: 50 mg/kg, ICR mouse, 5 mg/mL solution at 10 mL/kg, plasma. Here is the method: As the administration solution for mice of the compounds prepared in the above
Examples, the compound of Example 55 of International Publication No. WO 2010/030785 and the compound of Example 4 of International Publication No. WO 2013/048214, 20% hydroxypropyl-β-cyclodextrin solution (99.75%) and 2N HCl (0.25%) were added sequentially to make 5 mg/mL. Provided that in the case of the compound of Example 10, 99.5% of 20% hydroxypropyl-β-cyclodextrin solution and 0.5% of 2N HCl […] were added.
The weight of each ICR mouse was properly 20-30 g. Dosage of the compound of the present invention was 10 mL/kg, and administered orally using Zonde. Blood collection was performed at 0.5, 1, 2, 4, 7 and 24 hours by orbital venous blood collection using a capillary tube coated with an anticoagulant, and then plasma was isolated using a centrifuge and kept in a freezer.
Plasma collected from animals and standard concentration material were pre-treated using solid-phase extraction, and concentration of the compound of the invention was determined using a liquid chromatography mass spectrometer (Agilent HPLC, API-4000 Qtrap). According to the resulting concentration value, the pharmacokinetics parameter was found using WinNonlin (Version 7.0) and half-life (t1/2), maximum blood concentration (Cmax) and area under the curve (AUCall) are represented in Table 2.

A further series relates to ICR mice. In words: Histamine-induced itching model in ICR mice. The class given is in vivo, mouse. As to conditions: 50 mg/kg oral, scratches counted for 20 minutes. Here is the method: Female, ICR mice (8 weeks old) were purchased from OrientBio Co., Ltd. The animals were housed under conditions of controlled temperature (23±3° C.), humidity (50±5%) and lighting with food and water available ad libitum. Water and food were stopped 1 hour before the experiment.
For easy intradermal injection of pruritogen (histamine, dissolved in saline injection solution to make the concentration of 300 nmol per 40 μL) the hair was clipped using clippers (8000AD, THRIVE) over the rostral part of the back 24 hours before the experiment under inhalation anesthesia with isoflurane. Mice (n=10 per group) were divided into 5 groups (normal group, control group and 3 experimental groups). […] At the end of the filming, the number of scratches of the test animals was counted during 20 minutes after histamine administration using the recorded video. The number of scratches was counted a series of actions from scratching with the rear foot of the animal to the time of taking the rear foot to the mouth as one time (J. Allergy Clin. Immunol. 2007, 19(1), 176-183). All data were analyzed by using Excel and Prism, and the number of scratching of each group is expressed as the mean±S.E.M. The inhibitory effect of compounds is shown as a percentage of the maximal response to histamine (100% control group). Statistical analysis was analyzed using one-way ANOVA with Dunnett test. […]

The record followed here is patent publication US20210198259A1, “HETEROCYCLIC DERIVATIVES AND USE THEREOF” (C&C RESEARCH LABORATORIES, priority 2018, published 2021).

Counter-ions that a name gives are not always drawn.

Usually inhibition stands for the change of the read-out against control, counted positive when it falls. The AUC is concentration integrated over time. A low value points to less exposure. Broadly, the Cmax is the peak of the concentration-time curve. A word on the half-life: it is how long it takes for the measured level to halve. Low values mean rapid decline, high ones slow decline.

T1 sequence (Q9H3N8 whole entry): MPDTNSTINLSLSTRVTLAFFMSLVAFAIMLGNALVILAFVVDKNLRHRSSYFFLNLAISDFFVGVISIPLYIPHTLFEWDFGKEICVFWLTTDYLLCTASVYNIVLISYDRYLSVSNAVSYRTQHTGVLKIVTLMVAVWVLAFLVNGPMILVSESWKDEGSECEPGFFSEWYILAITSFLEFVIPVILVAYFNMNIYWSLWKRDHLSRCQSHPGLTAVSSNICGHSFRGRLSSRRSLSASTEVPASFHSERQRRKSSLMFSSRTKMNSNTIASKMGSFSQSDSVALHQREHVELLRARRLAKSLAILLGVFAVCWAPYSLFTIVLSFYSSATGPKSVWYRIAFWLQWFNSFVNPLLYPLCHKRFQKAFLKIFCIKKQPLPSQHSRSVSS

With `CN1CCN(C2=Nc3ccc(Br)cc3N3CC(=O)N=C23)CC1` [Example 12, 8-bromo-4-(4-methylpiperazin-1-yl)imidazo[1,2-a]quinoxalin-2(1H)-one], the inhibition at 1 µM in series [1] is 101%. Further, in series [2], the area under the curve (AUC) came to 1.39 µg·h/mL, the peak concentration (Cmax) was 0.57 µg/mL and the half-life is 1.73 h.

As to `CN1CCN(C2=Nc3ncc(Br)cc3N3CC(=O)N=C23)CC1` [Example 1, 8-bromo-4-(4-methylpiperazin-1-yl)imidazo[1,2-a]pyrido[2,3-e]pyrazin-2(1H)-one], the inhibition at 1 µM in series [1] was determined as 79.7%. In series [2], this compound had an area under the curve (AUC) of 8.65 µg·h/mL, a maximum concentration (Cmax) of 2.28 µg/mL and a half-life of 3.81 h.

In the case of `CN1CCN(C2=Nc3ccc([N+](=O)[O-])cc3N3CC(=O)N=C23)CC1` [Example 10, 4-(4-methylpiperazin-1-yl)-8-nitroimidazo[1,2-a]quinoxalin-2(1H)-one], the inhibition at 1 µM in series [1] is 98.1%. In series [2], this compound showed an AUC of 0.92 µg·h/mL, a Cmax of 0.36 µg/mL and a half-life of 2.04 h.

As for `CNC1CN(C2=Nc3ccc(Br)cc3N3CC(=O)N=C23)C1` [Example 13, 8-bromo-4-(3-(methylamino)azetidin-1-yl)imidazo[1,2-a]quinoxalin-2(1H)-one], in series [1], the “Human histamine 4 receptor (hH4R) binding affinity (% inhibition at 1 μM)” value was 95.8%. In series [2], the exposure (AUC) was 30.5 µg·h/mL and the highest level (Cmax) was 2.5 µg/mL. The “Inhibitory rate (%) After 30 minutes” value with ICR mice (histamine given 30 minutes after dosing) is 131%. In addition, the “Inhibitory rate (%) After 7 hours” value in the series with ICR mice (histamine given 7 hours after dosing) is listed as 99.0%.

`CN1CCN(C2=Nc3nc(Cl)c(Br)cc3N3CC(=O)N=C23)CC1` [Example 8, 8-bromo-7-chloro-4-(4-methylpiperazin-1-yl)imidazo[1,2-a]pyrido[2,3-e]pyrazin-2(1H)-one]: the inhibition at 1 µM in series [1] stood at 88.9%.

Take `CN1CCN(c2nc3ncc(Br)cc3n3[nH]c(=O)nc23)CC1` [Example 7, 8-bromo-4-(4-methylpiperazin-1-yl)pyrido[2,3-e][1,2,4] triazolo[1,5-a]pyrazin-2(1H)-one]: the inhibition at 1 µM in series [1] is -1.12%.

`CNC1CN(C2=Nc3ccc(Br)nc3N3CC(=O)N=C23)C1` [Example 32, 2-bromo-6-(3-(methylamino)azetidin-1-yl)imidazo[1,2-a]pyrido[3,2-e]pyrazin-8(9H)-one]: in series [1], the inhibition at 1 µM was determined as 97.4%.

As to `CN1CCN(C2=Nc3cnc(Br)cc3N3CC(=O)N=C23)CC1` [Example 25, 8-bromo-4-(4-methylpiperazin-1-yl)imidazo[1,2-a]pyrido[3,4-e]pyrazin-2(1H)-one], the inhibition at 1 µM in series [1] is 96.9%.

Consider `CN1CCN(C2=Nc3cnc(Cl)cc3N3CC(=O)N=C23)CC1` [Example 28, 8-chloro-4-(4-methylpiperazin-1-yl)imidazo[1,2-a]pyrido[3,4-e]pyrazin-2(1H)-one hydrochloride], for which the inhibition at 1 µM in series [1] was 96.8%.

Regarding `CNC1CN(C2=Nc3ccc(N)cc3N3CC(=O)N=C23)C1` [Example 18, 8-amino-4-(3-(methylamino)azetidin-1-yl)imidazo[1,2-a]quinoxalin-2(1H)-one], the inhibition at 1 µM in series [1] is 34.1%.

Consider `CN1CCN(C2=Nc3ccc(Cl)nc3N3CC(=O)N=C23)CC1` [Example 29, 2-chloro-6-(4-methylpiperazin-1-yl)imidazo[1,2-a]pyrido[3,2-e]pyrazin-8(9H)-one], for which, in series [1], the inhibition at 1 µM was found to be 97.3%.

In the case of `CN1CCN(C2=Nc3ccc(Br)c(Br)c3N3CC(=O)N=C23)CC1` [Example 15, 8,9-dibromo-4-(4-methylpiperazin-1-yl)imidazo[1,2-a]quinoxalin-2(1H)-one], the inhibition at 1 µM in series [1] is 99.2%.

In the case of `CNC1CN(C2=Nc3cnc(Cl)cc3N3CC(=O)N=C23)C1` [Example 24, 8-chloro-4-(3-(methylamino)azetidin-1-yl)imidazo[1,2-a]pyrido[3,4-e]pyrazin-2(1H)-one], the “Human histamine 4 receptor (hH4R) binding affinity (% inhibition at 1 μM)” value in series [1] came out at 91.9%.

In the case of `CN1CCN(C2=Nc3ncc(Br)cc3N3CS(=O)(=O)N=C23)CC1` [Example 27, 8-bromo-4-(4-methylpiperazin-1-yl)-1H-pyrido[2,3-e][1,2,4]thiadiazolo[4,3-a]pyrazin 2,2-dioxide], the inhibition at 1 µM in series [1] turned out to be 22.6%.

As to `CNC1CN(C2=Nc3ccc(NS(C)(=O)=O)cc3N3CC(=O)N=C23)C1` [Example 16, N-(4-(3-(methylamino)azetidin-1-yl)-2-oxo-1,2-dihydroimidazo[1,2-a]quinoxalin-8-yl)methanesulfonamide], in series [1], the inhibition at 1 µM was -5.98%.

For the compound `CN1CCN(c2nc3ncc(Br)cc3n3c(=O)[nH]nc23)CC1` [Example 6, 8-bromo-4-(4-methylpiperazin-1-yl)pyrido[2,3-e][1,2,4] triazolo[4,3-a]pyrazin-1(2H)-one], in series [1], the inhibition at 1 µM came out at 42.6%.
